Assay results from publication PMC4660440 (Scientific Reports, 2015).

How the values were obtained:
Type in all cases: cell-based
HeLa = assay: MTT cytotoxicity assay, HeLa; conditions: Homo sapiens, HeLa, 48 h, drug exposure 48 h, mean ± SD (n = 3), read-out: Cytotoxic activity (IC50) HeLa
Description: (§1) HeLa, BGC823, A-549, MCF-7 and HT-7702 cell lines were obtained from the ATCC. […] Tumor cells (3500–13,000) were seeded into 96-well microtest plates in 100 μL of culture medium per well, incubated for 48 h in the presence or absence of test compounds (8 different concentrations ranging from 100 to 0.01 μg/mL). For quantitative estimation of cytotoxicity, the (MTT) method was used, essentially performed as described previously. Briefly, cells were washed twice with PBS, fixed for 15 min in 1% glutaraldehyde solution, rinsed twice in PBS, and stained in 0.5% MTT solution for 4 h at 37 °C. […] The initial seeding densities varied among the cell lines to ensure a final absorbance reading in control (untreated) cultures within the range of 0.6–0.8 A492 units. Drug exposure was carried out for 2 days, and the IC50 value, i.e., the drug concentration that decreased the absorbance by 50%, was extrapolated from dose-response data. Each test was performed in triplicate, and the absorbance readings between the triplicates varied by no more than 10%.

BGC-823 = assay: MTT cytotoxicity assay, BGC-823; conditions: Homo sapiens, BGC-823, drug exposure 48 h, mean ± SD (n = 3), read-out: Cytotoxic activity (IC50) BGC-823
Description: as §1

A549 = assay: MTT cytotoxicity assay, A549; conditions: Homo sapiens, A549, drug exposure 48 h, mean ± SD (n = 3), read-out: Cytotoxic activity (IC50) A549
Description: as §1

MCF-7 = assay: MTT cytotoxicity assay, MCF-7; conditions: Homo sapiens, MCF7, drug exposure 48 h, mean ± SD (n = 3), read-out: Cytotoxic activity (IC50) MCF-7
Description: as §1

[1] = MTT cytotoxicity assay, normal hepatic cell line HL-7702; conditions: HL-7702 normal hepatic cells, human normal hepatic immortal cell line, drug exposure 48 h, mean ± SD (n = 3), read-out: Cytotoxic activity (IC50) HL-7702
Description: as §1

SMILES | IC50 (HeLa) [µM] | IC50 (BGC-823) [µM] | IC50 (A549) [µM] | IC50 (MCF-7) [µM] | IC50 at 48 h [1] [µM]
COc1cc([C@@H]2c3cc4c(cc3[C@@H](Nc3ccccc3Br)[C@H]3COC(=O)[C@H]23)OCO4)cc(OC)c1O [2′] | 31.3 ± 1.43 | 28.7 ± 1.04 | 44.9 ± 3.12 | 27.6 ± 0.91 | 47.4 ± 3.14
COc1cc([C@@H]2c3cc4c(cc3[C@@H](Nc3ccccc3)[C@H]3COC(=O)[C@H]23)OCO4)cc(OC)c1OC [Compound 1] | 35.1 ± 1.03 | 86.5 ± 4.21 | 43.2 ± 3.32 | – | 41.8 ± 2.47
COc1cc([C@@H]2c3cc4c(cc3[C@@H](Nc3ccccc3)[C@H]3COC(=O)[C@H]23)OCO4)cc(OC)c1O [Compound 1′] | 44.34 ± 0.34 | 68.2 ± 4.13 | 42.5 ± 5.11 | 26.8 ± 0.67 | 53.4 ± 4.34
COc1cc([C@@H]2c3cc4c(cc3[C@@H](Nc3ccccc3Br)[C@H]3COC(=O)[C@H]23)OCO4)cc(OC)c1OC [Compound 2] | 26.6 ± 2.03 | 17.9 ± 0.98 | 35.1 ± 2.37 | 29.1 ± 1.78 | 65.9 ± 2.37
COc1cc([C@@H]2c3cc4c(cc3[C@@H](Nc3ccccc3Cl)[C@H]3COC(=O)[C@H]23)OCO4)cc(OC)c1OC [Compound 3] | 26.7 ± 1.32 | 18.1 ± 1.03 | 27.2 ± 1.95 | 21.1 ± 0.76 | 13.2 ± 1.35
COc1cc([C@@H]2c3cc4c(cc3[C@@H](Nc3ccccc3Cl)[C@H]3COC(=O)[C@H]23)OCO4)cc(OC)c1O [Compound 3′] | 23.4 ± 1.4 | 23.1 ± 1.87 | 20.5 ± 0.42 | 37.5 ± 1.03 | 2.42 ± 0.71
COc1cc([C@@H]2c3cc4c(cc3[C@@H](Nc3ccccc3F)[C@H]3COC(=O)[C@H]23)OCO4)cc(OC)c1OC [Compound 4] | 22.1 ± 0.81 | 22.7 ± 0.97 | 16.8 ± 1.22 | 16.1 ± 0.17 | 16 ± 0.66
COc1cc([C@@H]2c3cc4c(cc3[C@@H](Nc3ccccc3F)[C@H]3COC(=O)[C@H]23)OCO4)cc(OC)c1O [Compound 4′] | 20.7 ± 0.75 | 17.8 ± 0.34 | 15.6 ± 1.75 | 15.3 ± 0.42 | 31.5 ± 2.81
COc1cc([C@@H]2c3cc4c(cc3[C@@H](Nc3cccc(Br)c3)[C@H]3COC(=O)[C@H]23)OCO4)cc(OC)c1OC [Compound 5] | 9.01 ± 0.11 | 11.2 ± 3.61 | 13.4 ± 2.54 | 8.35 ± 0.42 | 13.58 ± 0.11
COc1cc([C@@H]2c3cc4c(cc3[C@@H](Nc3cccc(Br)c3)[C@H]3COC(=O)[C@H]23)OCO4)cc(OC)c1O [Compound 5′] | 8.83 ± 0.12 | 13.6 ± 0.16 | 11.8 ± 0.74 | 10.7 ± 1.48 | 44.3 ± 1.78
COc1cc([C@@H]2c3cc4c(cc3[C@@H](Nc3cccc(Cl)c3)[C@H]3COC(=O)[C@H]23)OCO4)cc(OC)c1OC [Compound 6] | 5.43 ± 0.27 | 9.32 ± 1.79 | 7.23 ± 0.95 | 6.57 ± 0.15 | 35.27 ± 0.21
COc1cc([C@@H]2c3cc4c(cc3[C@@H](Nc3cccc(Cl)c3)[C@H]3COC(=O)[C@H]23)OCO4)cc(OC)c1O [Compound 6′] | 5.13 ± 0.05 | 6.59 ± 0.21 | 5.03 ± 1.07 | 4.75 ± 0.37 | 32.5 ± 0.86
COc1cc([C@@H]2c3cc4c(cc3[C@@H](Nc3cccc(F)c3)[C@H]3COC(=O)[C@H]23)OCO4)cc(OC)c1OC [Compound 7] | 3.12 ± 0.18 | 5.21 ± 1.32 | 6.8 ± 0.31 | 4.05 ± 0.26 | 29.9 ± 0.74
COc1cc([C@@H]2c3cc4c(cc3[C@@H](Nc3cccc(F)c3)[C@H]3COC(=O)[C@H]23)OCO4)cc(OC)c1O [Compound 7′] | 5.07 ± 0.31 | 2.24 ± 0.06 | 3.88 ± 0.33 | 3.14 ± 0.15 | 21.4 ± 1.57
COc1cc([C@@H]2c3cc4c(cc3[C@@H](Nc3ccc(Br)cc3)[C@H]3COC(=O)[C@H]23)OCO4)cc(OC)c1OC [Compound 8] | 42.1 ± 0.91 | 46.2 ± 2.97 | 52.9 ± 4.36 | 19.7 ± 0.62 | 27.1 ± 2.31
COc1cc([C@@H]2c3cc4c(cc3[C@@H](Nc3ccc(Br)cc3)[C@H]3COC(=O)[C@H]23)OCO4)cc(OC)c1O [Compound 8′] | 21.07 ± 0.17 | 62.1 ± 4.39 | 62.4 ± 3.66 | 28.9 ± 1.06 | 32.1 ± 0.96
COc1cc([C@@H]2c3cc4c(cc3[C@@H](Nc3ccc(Cl)cc3)[C@H]3COC(=O)[C@H]23)OCO4)cc(OC)c1OC [Compound 9] | 21.32 ± 0.11 | 23.1 ± 1.74 | 22.8 ± 1.08 | 19.3 ± 1.43 | 41.6 ± 3.11
COc1cc([C@@H]2c3cc4c(cc3[C@@H](Nc3ccc(Cl)cc3)[C@H]3COC(=O)[C@H]23)OCO4)cc(OC)c1O [Compound 9′] | 16.7 ± 1.31 | 14.3 ± 1.14 | 29.8 ± 0.75 | 37.68 ± 0.16 | 15.8 ± 1.17
COc1cc([C@@H]2c3cc4c(cc3[C@@H](Nc3ccc(F)cc3)[C@H]3COC(=O)[C@H]23)OCO4)cc(OC)c1OC [Compound 10] | 17.51 ± 0.04 | 17 ± 0.18 | 12.1 ± 0.63 | 7.06 ± 0.37 | 27.4 ± 1.98
COc1cc([C@@H]2c3cc4c(cc3[C@@H](Nc3ccc(F)cc3)[C@H]3COC(=O)[C@H]23)OCO4)cc(OC)c1O [Compound 10′] | 16.32 ± 0.09 | 28.61 ± 0.06 | 17.7 ± 0.47 | 9.84 ± 0.73 | 29.6 ± 2.33
COc1ccccc1N[C@@H]1c2cc3c(cc2[C@@H](c2cc(OC)c(OC)c(OC)c2)[C@H]2C(=O)OC[C@@H]21)OCO3 [Compound 11] | 13.4 ± 1.31 | 14.2 ± 0.98 | 14.1 ± 0.37 | 10.2 ± 0.61 | 37.5 ± 1.75
COc1ccccc1N[C@@H]1c2cc3c(cc2[C@@H](c2cc(OC)c(O)c(OC)c2)[C@H]2C(=O)OC[C@@H]21)OCO3 [Compound 11′] | 13.5 ± 1.38 | 9.68 ± 0.17 | 8.68 ± 0.29 | 9.42 ± 0.24 | 63.57 ± 0.19
COc1cccc(N[C@@H]2c3cc4c(cc3[C@@H](c3cc(OC)c(OC)c(OC)c3)[C@H]3C(=O)OC[C@@H]32)OCO4)c1 [Compound 13] | 11.6 ± 0.83 | 12.7 ± 1.06 | 12.4 ± 0.38 | 13.8 ± 3.98 | 38.8 ± 2.37
COc1cccc(N[C@@H]2c3cc4c(cc3[C@@H](c3cc(OC)c(O)c(OC)c3)[C@H]3C(=O)OC[C@@H]32)OCO4)c1 [Compound 13′] | 12.3 ± 0.74 | 13.8 ± 1.42 | 7.27 ± 2.38 | 11 ± 1.26 | 39.8 ± 2.73
COc1ccc(Br)cc1N[C@@H]1c2cc3c(cc2[C@@H](c2cc(OC)c(OC)c(OC)c2)[C@H]2C(=O)OC[C@@H]21)OCO3 [Compound 14] | 7.07 ± 0.63 | 6.26 ± 0.36 | 6.85 ± 0.75 | 4.97 ± 0.03 | 87.6 ± 4.13
COc1ccc(Br)cc1N[C@@H]1c2cc3c(cc2[C@@H](c2cc(OC)c(O)c(OC)c2)[C@H]2C(=O)OC[C@@H]21)OCO3 [Compound 14′] | 6.47 ± 0.17 | 22.2 ± 2.02 | 54.3 ± 4.49 | 4.21 ± 0.25 | 87.6 ± 5.04
COc1ccc(Cl)cc1N[C@@H]1c2cc3c(cc2[C@@H](c2cc(OC)c(OC)c(OC)c2)[C@H]2C(=O)OC[C@@H]21)OCO3 [Compound 15] | 2.64 ± 0.04 | 3.86 ± 0.29 | 1.71 ± 0.26 | 2.24 ± 0.14 | 19.3 ± 1.34
